pIC50, pKd: −log10 of the molar value.
Key:
[1] = biological target: T1, PI3Kα H1047R (full-length p110-α H1047R complexed with truncated p85-α, residues 322-694) + wortmannin (Homo sapiens, UniProt P42336, H1047R); experiment: Surface Plasmon Resonance (SPR) binding, Biacore 8K, ATP site blocked with wortmannin; conditions: multi-cycle kinetics, 25° C., protein pre-incubated with 1 μM wortmannin
T1 construct: The protein contained a full-length p110-α subunit harboring the H1047R mutation with an N-terminal AviTag
Procedure: SPR experiments were performed on a Biacore 8K instrument. A biotinylated recombinant PI3Kα H1047R protein was used in this study. The protein contained a full-length p110-α subunit harboring the H1047R mutation with an N-terminal AviTag, complexed with a truncated p85-α subunit (amino acid residues 322-694). The protein was first incubated with 1 μM wortmannin for 30 min at RT to covalently block the ATP binding site, then immobilized onto a streptavidin sensor chip by flowing the protein through the sensor chip at typically 20 μg/mL concentration and 2 μL/min flow rate for 1200 seconds. Compound binding affinities were measured in the multi-cycle kinetics mode, at 90 μL/min flow rate with 90 seconds association time and 240 seconds dissociation time. The running buffer contained 50 mM Tris, pH 7.5, 150 mMNaCl, 0.01% Brij35, 1 mM DTT, 1 mM MgCl2, 0.05% Tween-20 and 2% DMSO. Temperature was maintained at 25° C. during experiments. SPR can also be utilized to study competition between Compounds A and B, i.e., by measuring the binding of Compound A in the presence and absence of Compound B, and by measuring the binding of Compound B in the presence and absence of Compound A.

[2] = system: pAKT (S473) in T47D.1 cells, PI3Kα H1047R mutation present; experiment: HTRF pAKT-T47D cell assay; format: cell-based; conditions: RPMI+10% FBS+0.2 units/mL bovine insulin
Procedure: Compounds A and B were assayed using homogeneous time-resolved fluorescence (HTRF).
Gibco RPMI 1640 Medium, no phenol red; Gibco RPMI 1640 Medium; Gibco Trypsin-EDTA (0.5%), no phenol red; Gibco DPBS; Trypan blue solution 0.4% (Corning); Avantor Seradigm Premium Grade Fetal Bovine Serum (FBS); Greiner 784080-384 well TC treated white plates; pAKT (Ser473) HTRF; Gibco Insulin, human recombinant, zinc solution; Gibco Recovery Cell Culture Freezing Medium; Countess II FL Automated Cell Counter (ThermoFisher); Countess II Slides (ThermoFisher); Microscope; and PHERAstar FSX Microplate Reader (BMG LABTECH, Inc.).
The cell line ID was T47D.1, the HTRF detection was pAKT (S473), a PI3Kα H1047R mutation was present, the seeding density was 5000, the timepoint was 1 hour, and the medium used was RPMI+10% FBS (no phenol red)+0.2 units/mL bovine insulin.
• The cell density was not permitted to reach 100% confluence. The cells were split 1.5 when they reached ˜80% confluence. • Cells were split twice a week (Mon and Fri). • Cells over passage 18 were not used (˜2 months of maintenance). • Antibiotics were not used for tissue culture maintenance or assays.
The procedure was as follows: • 1. Prepared ARP: • a. Stamped 12.5 nL from 10 mM source plate to destination plate using Echo. Sealed plate immediately and froze at −20° C. if it was not used on the same day. • b. If a frozen ARP was used, the plate was thawed and spun at 1000 rpm×1 min. • 2. Preparation of cells (adherent): • a. Aspirated media from cells. Washed cells with sterile 1×PBS. Aspirated PBS and added appropriate amount of Trypsin. • b. Once cells were fully trypsinized, added appropriate media to resuspend cells. Transferred cells to a 15 mL or 50 mL conical tube. • c. Counted cells on the Countess II Cell Counter. • 3. Plating of cells: • a. […] Calculated the amount of HTRF antibody master mix needed to perform the desired experiments plus any extra dead volume required for dispensing (4 mL required per well). […]
• 6. Measured on the PHERAstar/Envision using the HTRF protocol. When plates were read, all wells were read.

T1 sequence (P42336 whole entry H1047R, the tested form may be a part): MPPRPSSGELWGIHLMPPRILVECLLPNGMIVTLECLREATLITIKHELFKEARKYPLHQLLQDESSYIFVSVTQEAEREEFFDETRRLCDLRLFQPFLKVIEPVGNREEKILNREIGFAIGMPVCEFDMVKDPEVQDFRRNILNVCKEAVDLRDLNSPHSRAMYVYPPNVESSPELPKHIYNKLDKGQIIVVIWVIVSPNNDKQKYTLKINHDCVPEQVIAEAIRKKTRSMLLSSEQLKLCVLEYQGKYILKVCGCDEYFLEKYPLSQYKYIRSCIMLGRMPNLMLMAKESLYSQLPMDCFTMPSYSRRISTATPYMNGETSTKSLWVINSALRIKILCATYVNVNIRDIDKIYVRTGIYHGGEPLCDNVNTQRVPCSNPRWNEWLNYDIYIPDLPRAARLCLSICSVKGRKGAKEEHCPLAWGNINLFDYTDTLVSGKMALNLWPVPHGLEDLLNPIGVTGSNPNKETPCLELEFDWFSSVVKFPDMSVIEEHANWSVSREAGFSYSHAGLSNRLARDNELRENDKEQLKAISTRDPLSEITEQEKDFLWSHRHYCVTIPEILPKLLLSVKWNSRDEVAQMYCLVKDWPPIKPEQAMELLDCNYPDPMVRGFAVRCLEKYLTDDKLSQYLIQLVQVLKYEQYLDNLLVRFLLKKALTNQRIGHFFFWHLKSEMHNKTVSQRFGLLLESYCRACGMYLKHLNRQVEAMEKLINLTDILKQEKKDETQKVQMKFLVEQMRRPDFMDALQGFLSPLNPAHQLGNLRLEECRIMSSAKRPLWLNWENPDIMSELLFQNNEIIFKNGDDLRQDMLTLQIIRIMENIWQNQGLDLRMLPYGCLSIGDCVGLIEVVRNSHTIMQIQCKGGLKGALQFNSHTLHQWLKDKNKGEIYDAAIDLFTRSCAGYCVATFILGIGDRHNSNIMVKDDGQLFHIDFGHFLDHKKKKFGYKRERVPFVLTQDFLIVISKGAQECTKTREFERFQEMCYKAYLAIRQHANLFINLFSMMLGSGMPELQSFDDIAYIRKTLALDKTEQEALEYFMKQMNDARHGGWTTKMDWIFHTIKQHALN
T1 sequence (P27986 322-694 partner limits assumed): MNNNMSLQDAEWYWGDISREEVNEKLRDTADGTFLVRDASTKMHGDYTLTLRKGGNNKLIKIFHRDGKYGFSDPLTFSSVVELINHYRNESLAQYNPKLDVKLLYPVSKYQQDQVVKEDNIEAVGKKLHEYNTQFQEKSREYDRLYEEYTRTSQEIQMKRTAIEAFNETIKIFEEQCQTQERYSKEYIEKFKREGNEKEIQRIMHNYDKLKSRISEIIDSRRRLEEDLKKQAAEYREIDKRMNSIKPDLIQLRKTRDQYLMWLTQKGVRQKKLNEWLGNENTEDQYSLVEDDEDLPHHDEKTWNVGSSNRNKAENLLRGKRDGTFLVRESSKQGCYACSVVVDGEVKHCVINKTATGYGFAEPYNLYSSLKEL

| SMILES | pKd [1] | pIC50 ([2]; 1 hour) | pIC50 ([2]; Homo sapiens, T47D, 1 h) |
| --- | --- | --- | --- |
| Cc1c([C@@H](NC(=O)Nc2cncc(C(=O)N(C)C)c2)C(C)C)oc2ccc(F)cc12 [Compound A, (S)-5-(3-(1-(5-fluoro-3-methylbenzofuran-2-yl)-2-methylpropyl)ureido)-N,N-dimethylnicotinamide] | 7.42 | 6.22 | 6.34 |
| Cc1c([C@@H](Nc2nc3ccc(C(N)=O)cc3[nH]2)C(C)C)oc2ccc(F)cc12 [Compound B, (S)-2-((1-(5-fluoro-3-methylbenzofuran-2-yl)-2-methylpropyl)amino)-1H-benzo[d]imidazole-6-carboxamide] | 8.07 |  | 6.67 |
